Assay results taken from ChEMBL document CHEMBL3822442, “Synthesis and Pharmacological Characterization of Novel Glucagon-like Peptide-2 (GLP-2) Analogues with Low Systemic Clearance” (J Med Chem, 2016).
Activity calls are given as the source filed them. The calls are words filed in the database; no cut-off is given here.

Legend:
HEK293 = assay: Selectivity ratio of EC50 for human GLP1R expressed in HEK293 cells to EC50 for human GLP2R expressed in HEK293; type: cell-based
[1] = target: Glucagon-like peptide 1 receptor (Homo sapiens, UniProt P43220); assay: Agonist activity at human GLP1R expressed in HEK293 cells after 5 hrs by luciferase reporter gene assay; type: cell-based
Chain of Glucagon-like peptide 1 receptor (P43220 whole entry): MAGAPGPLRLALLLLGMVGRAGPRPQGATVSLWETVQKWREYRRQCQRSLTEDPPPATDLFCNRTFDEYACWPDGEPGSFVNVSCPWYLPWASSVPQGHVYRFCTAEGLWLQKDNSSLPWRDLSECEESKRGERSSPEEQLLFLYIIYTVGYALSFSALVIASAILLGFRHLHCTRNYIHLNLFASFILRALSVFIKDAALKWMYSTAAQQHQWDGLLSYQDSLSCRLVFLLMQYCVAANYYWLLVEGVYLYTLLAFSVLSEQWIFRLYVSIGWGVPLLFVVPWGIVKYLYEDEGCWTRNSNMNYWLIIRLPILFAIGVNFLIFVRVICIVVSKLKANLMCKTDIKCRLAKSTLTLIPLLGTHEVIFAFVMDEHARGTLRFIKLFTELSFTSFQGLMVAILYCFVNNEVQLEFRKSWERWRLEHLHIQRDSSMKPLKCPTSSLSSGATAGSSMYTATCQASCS

[2] = Systemic clearance in Sprague-Dawley rat at 0.2 mg/kg, iv through cassette dosing measured up to 300 mins by LC/MS/MS analysis; type: ADME, organism-based; conditions: in vivo
[3] = target: T1, Glucagon-like peptide 2 receptor (Homo sapiens, UniProt O95838); assay: Agonist activity at human GLP2R expressed in HEK293 cells after 5 hrs by luciferase reporter gene assay; type: cell-based
T1 sequence (O95838 whole entry): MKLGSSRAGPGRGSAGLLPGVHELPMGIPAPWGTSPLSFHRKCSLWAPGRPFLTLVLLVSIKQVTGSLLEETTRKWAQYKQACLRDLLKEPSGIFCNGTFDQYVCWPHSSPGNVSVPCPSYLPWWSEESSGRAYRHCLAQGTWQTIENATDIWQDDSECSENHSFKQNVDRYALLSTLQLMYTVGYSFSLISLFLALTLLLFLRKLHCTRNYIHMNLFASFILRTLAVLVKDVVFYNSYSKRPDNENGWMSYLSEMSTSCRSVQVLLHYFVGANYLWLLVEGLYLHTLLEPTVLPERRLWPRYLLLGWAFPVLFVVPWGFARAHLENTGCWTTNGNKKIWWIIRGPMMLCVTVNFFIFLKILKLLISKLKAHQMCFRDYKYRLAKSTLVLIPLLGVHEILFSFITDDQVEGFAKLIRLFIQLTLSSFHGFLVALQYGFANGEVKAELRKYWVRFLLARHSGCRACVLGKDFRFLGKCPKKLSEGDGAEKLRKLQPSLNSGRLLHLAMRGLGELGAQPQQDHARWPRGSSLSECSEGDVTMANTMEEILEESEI

[4] = target: Glucagon receptor (Homo sapiens) (UniProt P47871); assay: Agonist activity at human GCGR expressed in HEK293 cells after 5 hrs by luciferase reporter gene assay; type: cell-based
Chain of Glucagon receptor (Homo sapiens) (P47871 whole entry): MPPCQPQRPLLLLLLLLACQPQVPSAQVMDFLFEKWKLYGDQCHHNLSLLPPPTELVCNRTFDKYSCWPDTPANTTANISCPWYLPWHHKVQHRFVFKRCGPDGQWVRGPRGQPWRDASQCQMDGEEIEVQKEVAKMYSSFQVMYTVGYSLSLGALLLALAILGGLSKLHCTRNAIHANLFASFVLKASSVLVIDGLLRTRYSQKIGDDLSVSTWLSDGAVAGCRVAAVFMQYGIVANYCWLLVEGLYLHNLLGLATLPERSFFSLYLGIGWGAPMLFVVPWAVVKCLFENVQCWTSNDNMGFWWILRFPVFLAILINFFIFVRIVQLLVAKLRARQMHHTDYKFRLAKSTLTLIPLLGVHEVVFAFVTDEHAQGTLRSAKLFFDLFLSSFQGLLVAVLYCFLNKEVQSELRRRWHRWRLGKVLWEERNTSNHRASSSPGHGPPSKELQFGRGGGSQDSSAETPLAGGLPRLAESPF

Structure (SMILES): CCCCC(NC(=O)[C@H](CCC(=O)O)NC(=O)[C@H](CC(=O)O)NC(=O)[C@H](CO)NC(=O)[C@H](Cc1ccccc1)NC(=O)[C@H](CO)NC(=O)CNC(=O)[C@H](CC(=O)O)NC(=O)CNC(=O)[C@@H](N)Cc1cnc[nH]1)C(=O)N[C@H](Cc1ccccc1)C(=O)N[C@H](C(=O)N[C@H](C(=O)N[C@@H](CC(C)C)C(=O)N[C@@H](CC(=O)O)C(=O)N[C@@H](CC(C)C)C(=O)N[C@@H](CC(C)C)C(=O)N[C@@H](C)C(=O)N[C@@H](C)C(=O)N[C@@H](CCCNC(=N)N)C(=O)N[C@@H](CC(=O)O)C(=O)N[C@@H](Cc1ccccc1)C(=O)N[C@H](C(=O)N[C@@H](CC(N)=O)C(=O)N[C@@H](Cc1c[nH]c2ccccc12)C(=O)N[C@@H](CC(C)C)C(=O)N[C@H](C(=O)N[C@@H](CCC(N)=O)C(=O)N[C@H](C(=O)N[C@@H](CCCCN)C(=O)N[C@H](C(=O)N[C@H](C(=O)N[C@@H](CC(=O)O)C(=O)O)[C@@H](C)O)[C@@H](C)CC)[C@@H](C)O)[C@@H](C)CC)[C@@H](C)CC)[C@@H](C)CC)[C@@H](C)O (some centres not stated)
- Ratio EC50 (HEK293): > 33000

Structure (SMILES): CCCCC(NC(=O)[C@H](CCC(=O)O)NC(=O)[C@H](CC(=O)O)NC(=O)[C@H](CO)NC(=O)[C@H](Cc1ccccc1)NC(=O)[C@H](CO)NC(=O)CNC(=O)[C@H](CC(=O)O)NC(=O)CNC(=O)[C@@H](N)Cc1cnc[nH]1)C(=O)N[C@H](Cc1ccccc1)C(=O)N[C@H](C(=O)N[C@H](C(=O)N[C@@H](CC(C)C)C(=O)N[C@@H](CC(=O)O)C(=O)N[C@@H](CC(C)C)C(=O)N[C@@H](CC(C)C)C(=O)N[C@@H](C)C(=O)N[C@@H](C)C(=O)N[C@@H](CCCNC(=N)N)C(=O)N[C@@H](CC(=O)O)C(=O)N[C@@H](Cc1ccccc1)C(=O)N[C@H](C(=O)N[C@@H](CC(N)=O)C(=O)N[C@@H](Cc1c[nH]c2ccccc12)C(=O)N[C@@H](CC(C)C)C(=O)N[C@H](C(=O)N[C@@H](CCC(N)=O)C(=O)N[C@H](C(=O)N[C@@H](CCCCN)C(=O)N[C@H](C(=O)N[C@H](C(=O)N[C@@H](CC(=O)O)C(=O)NCCOCCOCCOCCOCCC(N)=O)[C@@H](C)O)[C@@H](C)CC)[C@@H](C)O)[C@@H](C)CC)[C@@H](C)CC)[C@@H](C)CC)[C@@H](C)O (some centres not stated)
- Ratio EC50 (HEK293): > 33000

Structure (SMILES): CCCCC(NC(=O)[C@H](CCC(=O)O)NC(=O)[C@H](CC(=O)O)NC(=O)[C@H](CO)NC(=O)[C@H](Cc1ccccc1)NC(=O)[C@H](CO)NC(=O)CNC(=O)[C@H](CC(=O)O)NC(=O)CNC(=O)[C@@H](N)Cc1cnc[nH]1)C(=O)N[C@H](Cc1ccccc1)C(=O)N[C@H](C(=O)N[C@H](C(=O)N[C@@H](CC(C)C)C(=O)N[C@@H](CC(=O)O)C(=O)N[C@@H](CC(C)C)C(=O)N[C@@H](CC(C)C)C(=O)N[C@@H](C)C(=O)N[C@@H](C)C(=O)N[C@@H](CCCNC(=N)N)C(=O)N[C@@H](CC(=O)O)C(=O)N[C@@H](Cc1ccccc1)C(=O)N[C@H](C(=O)N[C@@H](CC(N)=O)C(=O)N[C@@H](Cc1c[nH]c2ccccc12)C(=O)N[C@@H](CC(C)C)C(=O)N[C@H](C(=O)N[C@@H](CCC(N)=O)C(=O)N[C@H](C(=O)N[C@@H](CCCCN)C(=O)N[C@H](C(=O)N[C@H](C(=O)N[C@@H](CC(=O)O)C(N)=O)[C@@H](C)O)[C@@H](C)CC)[C@@H](C)O)[C@@H](C)CC)[C@@H](C)CC)[C@@H](C)CC)[C@@H](C)O (some centres not stated)
- Ratio EC50 (HEK293): > 33000

Structure (SMILES): CCCCC(NC(=O)[C@H](CCC(=O)O)NC(=O)[C@H](CC(=O)O)NC(=O)[C@H](CO)NC(=O)[C@H](Cc1ccccc1)NC(=O)[C@H](CO)NC(=O)CNC(=O)[C@H](CC(=O)O)NC(=O)CNC(=O)[C@@H](N)Cc1cnc[nH]1)C(=O)N[C@H](Cc1cccs1)C(=O)N[C@H](C(=O)N[C@H](C(=O)N[C@@H](CC(C)C)C(=O)N[C@@H](CC(=O)O)C(=O)N[C@@H](Cc1ccc(O)cc1)C(=O)N[C@@H](CC(C)C)C(=O)N[C@@H](C)C(=O)N[C@@H](C)C(=O)N[C@@H](CCCNC(=N)N)C(=O)N[C@@H](CC(=O)O)C(=O)N[C@@H](Cc1ccccc1)C(=O)N[C@H](C(=O)N[C@@H](CC(N)=O)C(=O)N[C@@H](Cc1c[nH]c2ccccc12)C(=O)N[C@@H](CC(C)C)C(=O)N[C@H](C(=O)N[C@@H](CCC(N)=O)C(=O)N[C@H](C(=O)N[C@@H](CCCCN)C(N)=O)[C@@H](C)O)[C@@H](C)CC)[C@@H](C)CC)[C@@H](C)CC)[C@@H](C)O (some centres not stated)
- EC50 [1]: 70 nM
- clearance [2]: 0.52 mL/min/kg
- EC50 [3]: 0.07 nM

Structure (SMILES): CCCCC(NC(=O)[C@H](CCC(=O)O)NC(=O)[C@H](CC(=O)O)NC(=O)[C@H](CO)NC(=O)[C@H](Cc1ccccc1)NC(=O)[C@H](CO)NC(=O)CNC(=O)[C@H](CC(=O)O)NC(=O)CNC(=O)[C@@H](N)Cc1cnc[nH]1)C(=O)N[C@H](Cc1cccs1)C(=O)N[C@H](C(=O)N[C@H](C(=O)N[C@@H](CC(C)C)C(=O)N[C@@H](CC(=O)O)C(=O)N[C@@H](Cc1ccccc1)C(=O)N[C@@H](CC(C)C)C(=O)N[C@@H](C)C(=O)N[C@@H](C)C(=O)N[C@@H](CCCNC(=N)N)C(=O)N[C@@H](CC(=O)O)C(=O)N[C@@H](Cc1ccccc1)C(=O)N[C@H](C(=O)N[C@@H](CC(N)=O)C(=O)N[C@@H](Cc1c[nH]c2ccccc12)C(=O)N[C@@H](CC(C)C)C(=O)N[C@H](C(=O)N[C@@H](CCC(N)=O)C(=O)N[C@H](C(=O)N[C@@H](CCCCN)C(N)=O)[C@@H](C)O)[C@@H](C)CC)[C@@H](C)CC)[C@@H](C)CC)[C@@H](C)O (some centres not stated)
- Ratio EC50 (HEK293): > 12000

Structure (SMILES): CCCCC(NC(=O)[C@H](CCC(=O)O)NC(=O)[C@H](CC(=O)O)NC(=O)[C@H](CO)NC(=O)[C@H](Cc1ccccc1)NC(=O)[C@H](CO)NC(=O)CNC(=O)[C@H](CC(=O)O)NC(=O)CNC(=O)[C@@H](N)Cc1cnc[nH]1)C(=O)N[C@H](Cc1ccccc1)C(=O)N[C@H](C(=O)N[C@H](C(=O)N[C@@H](CC(C)C)C(=O)N[C@@H](CC(=O)O)C(=O)N[C@@H](CC(C)C)C(=O)N[C@@H](CC(C)C)C(=O)N[C@@H](C)C(=O)N[C@@H](C)C(=O)N[C@@H](CCCNC(=N)N)C(=O)N[C@@H](CC(=O)O)C(=O)N[C@@H](Cc1ccccc1)C(=O)N[C@H](C(=O)N[C@@H](CC(N)=O)C(=O)N[C@@H](Cc1c[nH]c2ccccc12)C(=O)N[C@@H](CC(C)C)C(=O)N[C@H](C(=O)N[C@@H](CCC(N)=O)C(=O)N[C@H](C(=O)N[C@@H](CCCCN)C(=O)N[C@H](C(=O)N[C@H](C(=O)N[C@@H](CC(=O)O)C(=O)NCC)[C@@H](C)O)[C@@H](C)CC)[C@@H](C)O)[C@@H](C)CC)[C@@H](C)CC)[C@@H](C)CC)[C@@H](C)O (some centres not stated)
- Ratio EC50 (HEK293): > 20000

Structure (SMILES): CCCCC(NC(=O)[C@H](CCC(=O)O)NC(=O)[C@H](CC(=O)O)NC(=O)[C@H](CO)NC(=O)[C@H](Cc1ccccc1)NC(=O)[C@H](CO)NC(=O)CNC(=O)[C@H](CC(=O)O)NC(=O)CNC(=O)[C@@H](N)Cc1cnc[nH]1)C(=O)N[C@H](CC(C)C)C(=O)N[C@H](C(=O)N[C@H](C(=O)N[C@@H](CC(C)C)C(=O)N[C@@H](CC(=O)O)C(=O)N[C@@H](CC(N)=O)C(=O)N[C@@H](CC(C)C)C(=O)N[C@@H](C)C(=O)N[C@@H](C)C(=O)N[C@@H](CCCNC(=N)N)C(=O)N[C@@H](CC(=O)O)C(=O)N[C@@H](Cc1ccccc1)C(=O)N[C@H](C(=O)N[C@@H](CC(N)=O)C(=O)N[C@@H](Cc1c[nH]c2ccccc12)C(=O)N[C@@H](CC(C)C)C(=O)N[C@H](C(=O)N[C@@H](CCC(N)=O)C(=O)N[C@H](C(=O)N[C@@H](CCCCN)C(N)=O)[C@@H](C)O)[C@@H](C)CC)[C@@H](C)CC)[C@@H](C)CC)[C@@H](C)O (some centres not stated)
- Activity [4]: inactive

Structure (SMILES): CCCC[C@H](NC(=O)[C@H](CCC(=O)O)NC(=O)[C@H](CC(=O)O)NC(=O)[C@H](CO)NC(=O)[C@H](Cc1ccccc1)NC(=O)[C@H](CO)NC(=O)CNC(=O)[C@H](CC(=O)O)NC(=O)CNC(=O)[C@@H](N)Cc1cnc[nH]1)C(=O)N[C@@H](CC(N)=O)C(=O)N[C@H](C(=O)N[C@H](C(=O)N[C@@H](CC(C)C)C(=O)N[C@@H](CC(=O)O)C(=O)N[C@@H](Cc1ccc(-c2ccccc2)cc1)C(=O)N[C@@H](CC(C)C)C(=O)N[C@@H](C)C(=O)N[C@@H](C)C(=O)N[C@@H](CCCNC(=N)N)C(=O)N[C@@H](CC(=O)O)C(=O)N[C@@H](Cc1ccccc1)C(=O)N[C@H](C(=O)N[C@@H](CC(N)=O)C(=O)N[C@@H](Cc1c[nH]c2ccccc12)C(=O)N[C@@H](CC(C)C)C(=O)N[C@H](C(=O)N[C@@H](CCC(N)=O)C(=O)N[C@H](C(=O)N[C@@H](CCCCN)C(N)=O)[C@@H](C)O)[C@@H](C)CC)[C@@H](C)CC)[C@@H](C)CC)[C@@H](C)O
- EC50 [1]: > 1000 nM
- EC50 [3]: 0.35 nM

Structure (SMILES): CCCCC(NC(=O)[C@H](CCC(=O)O)NC(=O)[C@H](CC(=O)O)NC(=O)[C@H](CO)NC(=O)[C@H](Cc1ccccc1)NC(=O)[C@H](CO)NC(=O)CNC(=O)[C@H](CC(=O)O)NC(=O)CNC(=O)[C@@H](N)Cc1cnc[nH]1)C(=O)N[C@H](Cc1ccccc1)C(=O)N[C@H](C(=O)N[C@H](C(=O)N[C@@H](CC(C)C)C(=O)N[C@@H](CC(=O)O)C(=O)N[C@@H](CC(C)C)C(=O)N[C@@H](CC(C)C)C(=O)N[C@@H](C)C(=O)N[C@@H](C)C(=O)N[C@@H](CCCNC(=N)N)C(=O)N[C@@H](CC(=O)O)C(=O)N[C@@H](Cc1ccccc1)C(=O)N[C@H](C(=O)N[C@@H](CC(N)=O)C(=O)N[C@@H](Cc1c[nH]c2ccccc12)C(=O)N[C@@H](CC(C)C)C(=O)N[C@H](C(=O)N[C@@H](CCC(N)=O)C(=O)N[C@H](C(=O)N[C@@H](CCCCN)C(N)=O)[C@@H](C)O)[C@@H](C)CC)[C@@H](C)CC)[C@@H](C)CC)[C@@H](C)O (some centres not stated)
- Ratio EC50 (HEK293): > 12000
